Results from US20100129317A1 (priority 2006, published 2010).
Entries after “also recorded” stand apart in the source; their conditions may differ.

Assays:
Hantaan virus (HTNV) = assay type: cell-based
[1] = test system: Crimean Congo Hemorraghic fever virus (CCHFV); assay type: cell-based
Human adenosine kinase [2] = target: T1, Human adenosine kinase (Homo sapiens, UniProt P55263); assay: Adenosine kinase activity with selected nucleoside analogs (conversion to 5'-monophosphate, HPLC); assay type: biochemical; conditions: 100 μM of each compound and ATP, 37° C., conversion to 5'-monophosphate by HPLC
T1 sequence (P55263 whole entry): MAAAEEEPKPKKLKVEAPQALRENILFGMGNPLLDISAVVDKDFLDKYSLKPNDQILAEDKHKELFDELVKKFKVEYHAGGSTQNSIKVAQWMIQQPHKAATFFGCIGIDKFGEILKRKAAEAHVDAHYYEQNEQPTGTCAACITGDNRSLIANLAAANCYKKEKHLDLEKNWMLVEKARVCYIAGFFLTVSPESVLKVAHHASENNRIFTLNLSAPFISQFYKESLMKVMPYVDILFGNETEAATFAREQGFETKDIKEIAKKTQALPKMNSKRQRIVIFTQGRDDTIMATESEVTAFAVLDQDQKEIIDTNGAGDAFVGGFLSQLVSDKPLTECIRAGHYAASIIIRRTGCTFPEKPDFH

[3] = test system: GTP levels in human cells; assay: Intracellular GTP levels in human cells; assay type: cell-based; conditions: for effect of treatment on GTP levels in human cells: 10 μM
Human adenosine kinase [4] = target: T1, Human adenosine kinase; assay: Radiolabeled TA-18 as substrate for human adenosine kinase; assay type: biochemical; conditions: radiolabeled compound, 10 μM
human CEM cells = assay: Metabolism to phosphorylated intracellular metabolites in human cells
influenza A/Udorn/72 = assay type: cell-based, Influenza A H3N2

`O=c1c2ncn([C@@H]3O[C@H](CO)[C@@H](O)[C@H]3O)c2ncn1-c1cccc(F)c1` [IA-3, N^1-(3-fluorophenyl)-inosine] was tested, and the “antiviral activity against HTNV” value (Hantaan virus (HTNV)) was “showed antiviral activity”.
With `Nc1c(C(=O)Nc2cccc(F)c2)ncn1[C@@H]1O[C@H](CO)C(O)C1O` (stereo partly drawn) [RN-3, 5-amino-4-N-3-fluorophenylcarboxamide-1-β-D-ribofuranosyl-1H-imidazole] the “antiviral activity against HTNV” value (Hantaan virus (HTNV)) was “showed activity”.
`O=[N+]([O-])c1ncn([C@@H]2O[C@H](CO)C(O)[C@@H]2O)n1` (some centres unmarked) [TA-1] was tested, and the “antiviral activity against CCHFV” value [1] was “showed antiviral activity”.
`CC(=O)c1ncn([C@@H]2O[C@H](CO)[C@@H](O)[C@H]2O)n1` [TA-13, 1-(1-β-D-ribofuranosyl-[1,2,4]triazole-3-yl)-ethanone] was tested, and the “Activity as a percent of ribavirin” value (Human adenosine kinase [2]) was 8% of ribavirin.
`OC[C@H]1O[C@@H](n2cnc(C(O)c3ccccc3)n2)C(O)[C@H]1O` (stereo partly drawn) [TA-14, 1-(1-β-D-ribofuranosyl-[1,2,4]triazol-3-yl)-phenylmethanol] was tested, and the “antiviral activity against HTNV” value (Hantaan virus (HTNV)) was “showed antiviral activity”.
`C#Cc1ncn([C@@H]2O[C@H](CO)[C@@H](O)[C@H]2O)n1` [TA-18, 3-ethynyl-1-(β-D-ribofuranosyl)-[1,2,4]triazole] was tested, and the “effect of treatment on GTP levels in human cells” value [3] was “decline in GTP levels”, the “potency of metabolites in reducing GTP levels compared with ribavirin metabolites” value ([3]; inferred from metabolite amounts and GTP decline) was “more potent in reducing GTP levels than the ribavirin metabolites” and the “substrate for human adenosine kinase (radiolabeled TA-18)” value (Human adenosine kinase [4]) was “it is a substrate for human adenosine kinase; also recorded: subs ate for human adenosine kinase”. For the same compound, the “antiviral activity against CCHFV” value [1] was “showed antiviral activity”, the “Activity as a percent of ribavirin” value (Human adenosine kinase [2]) was 25% of ribavirin and the “conversion to phosphorylated metabolites in human cells” value (human CEM cells; human CEM cells, 10 μM) was “converted to phosphorylated metabolites”. For the same compound, the “antiviral activity against influenza” value (influenza A/Udorn/72) was “showed antiviral activity” and the “antiviral activity against HTNV” value (Hantaan virus (HTNV)) was “showed antiviral activity”.
With `NC(=O)CC(O)c1ncn([C@@H]2O[C@H](CO)[C@@H](O)[C@H]2O)n1` (stereo partly drawn) [TA-20, 3-(1-β-D-ribofuranosyl-[1,2,4]triazol-3-yl)-3-hydroxypropionamide] the “Activity as a percent of ribavirin” value (Human adenosine kinase [2]) was 5% of ribavirin.
With `Nc1ncnc2c1c(I)cn2[C@@H]1O[C@H](CO)[C@@H](O)[C@H]1O` [iodotubercidin, reference compound] the “effect of adenosine kinase inhibition with iodotubercidin on the decline in GTP levels caused by TA-18” value [3] was “prevented the decline in GTP levels caused by TA-18” and the “effect of adenosine kinase inhibition with iodotubercidin on the metabolism of TA-18” value (human CEM cells; human cells) was “inhibited the metabolism of TA-18”.
In the case of `NC(=O)c1ncn([C@@H]2O[C@H](CO)[C@@H](O)[C@H]2O)n1` [ribavirin, reference compound], the “effect of treatment on GTP levels in human cells” value [3] is reported as “decrease in GTP levels”.
